Data reported in patent US4725621A, “CL-1957E antibiotic compound and its production” (priority 1986, dated 1988).
Values after ≈ are worked out from the molar mass of the structure shown. Counter-ions that a name gives are not always drawn.

Experiments:
solubility in water = format: physicochemical; conditions: lyophilized triethylammonium salt
Procedure: A cooled solution of triethylamine (2.45 ml, 0.176 mmol) in 7.55 ml of water is added dropwise with stirring to a solution of 100 mg (0.176 mmol) of CL-1957E in 2.5 ml of methanol. The resulting solution is concentrated to a final volume of about 2 ml on a rotary evaporator and then diluted to 40 ml with water. Two-milliliter aliquots of this solution were added to each of several 6-ml vials.

[1] = test system: L1210 mouse leukemia cells; test: in vitro cytotoxicity against L1210 mouse leukemia cells; format: cell-based; conditions: read-out: ID50 (cytotoxicity)
Procedure: (§1) The cytotoxicity of CL-1957E against L1210 mouse leukemia cells and against human colon adenocarcinoma (HCT 8) cells was measured in vitro. The ID50 values appear in Table 8.

Mucor parasiticus = test: antimicrobial activity, broth microdilution (yeast extract-peptone-dextrose broth); format: cell-based; conditions: culture number M2652, read-out: Minimal Inhibitory Concentration (MIC)
Procedure: (§2) The antimicrobial activity of CL-1957E was evaluated using the broth microdilution method. Serial dilutions of CL-1957E were made in Muellar-Hinton broth for bacteria and in yeast extract-peptone-dextrose broth for the fungi.

Torulopsis albida = test: as above; format: cell-based; conditions: Naganishia albida; culture number M1390; read-out: Minimal Inhibitory Concentration (MIC)
Procedure: as §2

Rhizopus japonicus = test: as above; format: cell-based; conditions: culture number M1557, read-out: Minimal Inhibitory Concentration (MIC)
Procedure: as §2

Rhodotorula aurantiaca = test: as above; format: cell-based; conditions: Buckleyzyma aurantiaca; culture number M1508; read-out: Minimal Inhibitory Concentration (MIC)
Procedure: as §2

[2] = test system: Schizosaccharomyces pombe; test: as above; format: cell-based; conditions: culture number M1388, read-out: Minimal Inhibitory Concentration (MIC)
Procedure: as §2

Saccharomyces cerevisiae = test: as above; format: cell-based; conditions: culture number S288, read-out: Minimal Inhibitory Concentration (MIC)
Procedure: as §2

P388 leukemia = test: in vivo activity against P388 leukemia in mice; conditions: Days 1-5, P388 inoculated intraperitoneally Day 0
Procedure: The in vivo activity of CL-1957E against P388 leukemia in mice was assayed using the protocol established in Cancer Chemotherapy Reports, Vol. 3, Part 3, 1-87 (1972). The results of these tests are presented in Table 7 in terms of %T/C values which are the ratios of mean survival times of treated to control animals, expressed as percentages.

Streptococcus pneumoniae = test: antimicrobial activity, broth microdilution (Mueller-Hinton broth); format: cell-based; conditions: culture number SV1, read-out: Minimal Inhibitory Concentration (MIC)
Procedure: as §2

Escherichia coli = test: as above; format: cell-based; conditions: culture number 04863, read-out: Minimal Inhibitory Concentration (MIC)
Procedure: as §2

Branhamella catarrhalis = test: as above; format: cell-based; conditions: Moraxella catarrhalis; culture number 03596; read-out: Minimal Inhibitory Concentration (MIC)
Procedure: as §2

Streptococcus faecalis = test: as above; format: cell-based; conditions: Enterococcus faecalis; culture number 05045; read-out: Minimal Inhibitory Concentration (MIC)
Procedure: as §2

Alcaligenes viscolactis = test: as above; format: cell-based; conditions: culture number 21698, read-out: Minimal Inhibitory Concentration (MIC)
Procedure: as §2

Bacillus cereus = test: as above; format: cell-based; conditions: culture number 04810, read-out: Minimal Inhibitory Concentration (MIC)
Procedure: as §2

Salmonella typhimurium = test: as above; format: cell-based; conditions: Salmonella enterica, culture number TA1535, read-out: Minimal Inhibitory Concentration (MIC)
Procedure: as §2

Bacillus megaterium = test: as above; format: cell-based; conditions: Priestia megaterium; culture number 066; read-out: Minimal Inhibitory Concentration (MIC)
Procedure: as §2

Micrococcus luteus = test: as above; format: cell-based; conditions: culture number 05064, read-out: Minimal Inhibitory Concentration (MIC)
Procedure: as §2

Streptococcus pyogenes = test: as above; format: cell-based; conditions: culture number C203, read-out: Minimal Inhibitory Concentration (MIC)
Procedure: as §2

Staphylococcus aureus = test: as above; format: cell-based; conditions: culture number 02482, read-out: Minimal Inhibitory Concentration (MIC)
Procedure: as §2

Pseudomonas aeruginosa = test: as above; format: cell-based; conditions: culture number 05111, read-out: Minimal Inhibitory Concentration (MIC)
Procedure: as §2

[3] = test system: human colon adenocarcinoma (HCT 8) cells; test: in vitro cytotoxicity against human colon adenocarcinoma (HCT 8) cells; format: cell-based; conditions: read-out: ID50 (cytotoxicity)
Procedure: as §1

In the case of `CC(/C=C/C1OC(=O)C=CC1C)=C\C(C)C/C=C/C(C)=C/C(CO)C(=O)C(C)C(O)C(C)C/C(C)=C/C(=O)O` (stereo not shown) [CL-1957E triethylammonium salt], the solubility in water (solubility in water) is reported as “soluble in water”.

With `CC(/C=C/C1OC(=O)C=CC1C)=C\C(C)C/C=C/C(C)=C/C(CO)C(=O)C(C)C(O)C(C)C/C(C)=C/C(=O)O` (stereo not shown) [CL-1957E, 19-(3,6-dihydro-3-methyl-6-oxo-2H-pyran-2-yl)-6-hydroxy-9-(hydroxymethyl)-3,5,7,11,15,17-hexamethyl-8-oxo-2,10,12,16,18-nonadecapentaenoic acid] the IC50 [1] was 0.0034 µg/mL (≈ 0.00626 µM), the MIC (Mucor parasiticus) was > 1000 µg/mL and the MIC (Torulopsis albida) was > 1000 µg/mL. For the same compound, the MIC (Rhizopus japonicus) was > 1000 µg/mL, the MIC (Rhodotorula aurantiaca) was > 1000 µg/mL and the MIC [2] was 12.3 µg/mL (≈ 22.7 µM). The MIC (Saccharomyces cerevisiae) was > 1000 µg/mL, the “% T/C (ratio of mean survival times of treated to control animals)” value (P388 leukemia; 25 μg/kg/injection) was 130% and the “% T/C (ratio of mean survival times of treated to control animals)” value (P388 leukemia; 50 μg/kg/injection) was 139%. The “% T/C (ratio of mean survival times of treated to control animals)” value (P388 leukemia; 100 μg/kg/injection) was 153%, the “% T/C (entry in words: toxicity)” value (P388 leukemia; 200 μg/kg/injection) was “Toxic” and the MIC (Streptococcus pneumoniae) was ≤ 0.46 µg/mL. For the same compound, the MIC (Escherichia coli) was > 1000 µg/mL, the MIC (Branhamella catarrhalis) was ≤ 0.46 µg/mL and the MIC (Streptococcus faecalis) was ≤ 0.46 µg/mL. The MIC (Alcaligenes viscolactis) was ≤ 0.46 µg/mL, the MIC (Bacillus cereus) was ≤ 0.46 µg/mL and the MIC (Salmonella typhimurium) was > 1000 µg/mL. The MIC (Bacillus megaterium) was ≤ 0.46 µg/mL, the MIC (Micrococcus luteus) was ≤ 0.46 µg/mL and the MIC (Streptococcus pyogenes) was ≤ 0.46 µg/mL. For the same compound, the MIC (Staphylococcus aureus) was ≤ 0.46 µg/mL, the MIC (Pseudomonas aeruginosa) was > 1000 µg/mL and the IC50 [3] was 0.001 µg/mL (≈ 0.00184 µM).
